# Laboratory results from ChEMBL document CHEMBL1909046, “DrugMatrix in vitro pharmacology data”.
# pIC50: −log10 of the molar value.
# Columns and labels:
# [1] = molecular target: Prostaglandin G/H synthase 1 (Homo sapiens, UniProt P23219); test: biochemical; type: tissue-based, Platelet; conditions: platelet;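 also: inhibition of COX-1 enzyme activity, with arachidonic acid supplied as substrate; in other assays of this panel Not Active means under 50% inhibition at 10 µM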
# [2] = DRUGMATRIX: Potassium Channel [KATP] radioligand binding (ligand: [3H] Glyburide); type: cell membranes, Membrane; conditions: hit-t15; Not Active = under 50% inhibition at 10 µM
# [3] = DRUGMATRIX: Phosphodiesterase PDE4 enzyme inhibition (substrate: [3H]cAMP + cAMP); conditions: u-937; Not Active = under 50% inhibition at 10 µM
# [4] = molecular target: T1, Muscarinic acetylcholine receptor M4 (Homo sapiens, UniProt P08173); type: cell membranes, CHO-K1, Membrane; conditions: cho-k1; also: in other assays of this panel Not Active means under 50% inhibition at 10 µM
# T1 sequence (P08173 whole entry): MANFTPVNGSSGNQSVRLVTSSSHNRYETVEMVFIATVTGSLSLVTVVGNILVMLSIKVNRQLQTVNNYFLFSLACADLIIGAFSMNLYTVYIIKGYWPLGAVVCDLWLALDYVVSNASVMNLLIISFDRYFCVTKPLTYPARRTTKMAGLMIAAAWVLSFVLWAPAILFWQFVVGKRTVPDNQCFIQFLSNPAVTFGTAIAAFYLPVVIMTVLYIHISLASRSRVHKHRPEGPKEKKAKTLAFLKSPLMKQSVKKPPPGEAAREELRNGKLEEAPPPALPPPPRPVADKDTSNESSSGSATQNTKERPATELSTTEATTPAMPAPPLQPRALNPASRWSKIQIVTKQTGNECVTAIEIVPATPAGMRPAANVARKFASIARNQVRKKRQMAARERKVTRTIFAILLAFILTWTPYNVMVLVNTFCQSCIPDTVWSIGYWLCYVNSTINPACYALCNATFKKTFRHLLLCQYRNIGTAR
# [5] = molecular target: Mitogen-activated protein kinase 14 (Homo sapiens, UniProt Q16539); set-up: species or system Escherichia coli; conditions: for pIC50: read-out: IC50;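 as to all read-outs here: inhibition of p38alpha enzyme activity in a biochemical kinase assay, with myelin basic protein serving as substrate; in other assays of this panel Not Active means under 50% inhibition at 10 µM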
# Chain of Mitogen-activated protein kinase 14 (Q16539 whole entry): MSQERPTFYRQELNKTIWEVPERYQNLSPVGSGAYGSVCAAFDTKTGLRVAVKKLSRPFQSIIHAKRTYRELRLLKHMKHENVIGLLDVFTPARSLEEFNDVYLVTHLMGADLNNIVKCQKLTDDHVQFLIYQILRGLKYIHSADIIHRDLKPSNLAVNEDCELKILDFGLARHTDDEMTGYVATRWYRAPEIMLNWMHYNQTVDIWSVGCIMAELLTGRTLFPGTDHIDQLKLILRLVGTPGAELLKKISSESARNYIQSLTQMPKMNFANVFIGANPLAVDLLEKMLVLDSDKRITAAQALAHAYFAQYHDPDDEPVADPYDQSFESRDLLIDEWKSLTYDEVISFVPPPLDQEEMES
# Leukotriene C4 synthase = molecular target: T2, Leukotriene C4 synthase (Cavia porcellus, UniProt A6XA80); type: tissue-based, Lung;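 also: enzyme inhibition assay of leukotriene C4 synthase, using LTA4 as the substrate; in other assays of this panel Not Active means under 50% inhibition at 10 µM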
# T2 sequence (A6XA80 whole entry): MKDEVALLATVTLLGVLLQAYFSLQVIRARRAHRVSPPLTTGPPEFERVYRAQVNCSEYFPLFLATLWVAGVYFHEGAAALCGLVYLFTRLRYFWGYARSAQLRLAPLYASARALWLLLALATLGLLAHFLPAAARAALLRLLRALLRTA
# Chain of Prostaglandin G/H synthase 1 (P23219 whole entry): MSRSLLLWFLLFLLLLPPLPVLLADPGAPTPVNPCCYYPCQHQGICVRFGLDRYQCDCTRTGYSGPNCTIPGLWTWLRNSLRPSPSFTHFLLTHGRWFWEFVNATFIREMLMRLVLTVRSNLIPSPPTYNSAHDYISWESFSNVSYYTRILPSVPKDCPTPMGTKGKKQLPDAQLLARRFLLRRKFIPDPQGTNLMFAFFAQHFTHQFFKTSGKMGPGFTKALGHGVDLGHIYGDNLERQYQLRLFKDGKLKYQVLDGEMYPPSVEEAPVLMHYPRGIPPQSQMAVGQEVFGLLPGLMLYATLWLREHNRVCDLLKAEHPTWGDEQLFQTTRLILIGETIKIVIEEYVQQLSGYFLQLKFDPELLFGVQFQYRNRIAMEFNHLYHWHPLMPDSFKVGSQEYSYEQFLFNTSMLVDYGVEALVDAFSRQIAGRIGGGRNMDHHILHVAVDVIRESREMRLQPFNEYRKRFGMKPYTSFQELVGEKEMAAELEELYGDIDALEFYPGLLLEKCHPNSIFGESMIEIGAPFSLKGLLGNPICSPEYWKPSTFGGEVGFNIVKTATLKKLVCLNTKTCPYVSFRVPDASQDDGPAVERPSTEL
Compound,IC50 [1],IC50 [2],Ki [2],IC50 [3],Ki [3],IC50 [4],pIC50 [5],IC50 (Leukotriene C4 synthase),IC50 [5],Ki [1],Ki [4],Ki [5],Ki (Leukotriene C4 synthase)
C[C@@H]1C[C@H]2[C@@H]3CCC4=CC(=O)C=C[C@]4(C)C3=CC[C@]2(C)[C@H]1C(=O)CN1CCN(c2cc(N3CCCC3)nc(N3CCCC3)n2)CC1 [TIRILAZAD],Not Active,Not Active,Not Active,Not Active,Not Active,Not Active,5.13,Not Active,,,,,
NC[C@H]1O[C@H](O[C@H]2[C@H](O)[C@@H](O[C@H]3O[C@H](CO)[C@@H](O)[C@H](N)[C@H]3O)[C@H](N)C[C@@H]2N)[C@H](N)C[C@@H]1O [TOBRAMYCIN],Not Active,Not Active,Not Active,Not Active,Not Active,Not Active,,Not Active,Not Active,,,,
O=C(O)C(Cl)(Cl)Cl [TRICHLOROACETIC ACID],Not Active,Not Active,Not Active,Not Active,Not Active,Not Active,,Not Active,Not Active,,,,
COc1ccc(CN2CCNCC2)c(OC)c1OC [TRIMETAZIDINE],Not Active,Not Active,Not Active,Not Active,Not Active,Not Active,,Not Active,Not Active,,,,
CC(=O)O[C@H]1C[C@@H]2CC[C@@H]3[C@H](CC[C@@]4(C)[C@H]3C[C@H]([N+]3(C)CCCCC3)[C@@H]4OC(C)=O)[C@@]2(C)C[C@@H]1N1CCCCC1.[Br-] [VECURONIUM BROMIDE],Not Active,Not Active,Not Active,Not Active,Not Active,Not Active,,Not Active,Not Active,,,,
COc1cc(C(=O)NS(=O)(=O)c2ccccc2C)ccc1Cc1cn(C)c2ccc(NC(=O)OC3CCCC3)cc12 [ZAFIRLUKAST],Not Active,Not Active,Not Active,Not Active,Not Active,Not Active,6.45,Not Active,,,,,
Cc1cn([C@H]2C[C@H](N=[N+]=[N-])[C@@H](CO)O2)c(=O)[nH]c1=O [ZIDOVUDINE],Not Active,Not Active,Not Active,Not Active,Not Active,Not Active,,Not Active,Not Active,,,,
STANNOUS FLUORIDE,Not Active,Not Active,Not Active,Not Active,Not Active,Not Active,,Not Active,Not Active,Not Active,Not Active,Not Active,Not Active
THIMEROSAL,Not Active,Not Active,Not Active,Not Active,Not Active,Not Active,,Not Active,Not Active,Not Active,Not Active,Not Active,Not Active
